What was measured:
[1] = target: T1, human orexin-2 receptor (Homo sapiens, UniProt O43614); assay: FLIPR Ca2+ flux assay, OX2R; format: cell-based; settings: for IC50: CHO cells expressing human orexin-2 receptor, agonist 70 pM Ala-6,12 orexin-A, read-out: OX2R FLIPR; for Fold Selective: OX2R over OX1R, from FLIPR values
T1 construct: expressed in transfected cells; host or cells: CHO cells (grown under G418 selection)
T1 sequence (O43614 1-444): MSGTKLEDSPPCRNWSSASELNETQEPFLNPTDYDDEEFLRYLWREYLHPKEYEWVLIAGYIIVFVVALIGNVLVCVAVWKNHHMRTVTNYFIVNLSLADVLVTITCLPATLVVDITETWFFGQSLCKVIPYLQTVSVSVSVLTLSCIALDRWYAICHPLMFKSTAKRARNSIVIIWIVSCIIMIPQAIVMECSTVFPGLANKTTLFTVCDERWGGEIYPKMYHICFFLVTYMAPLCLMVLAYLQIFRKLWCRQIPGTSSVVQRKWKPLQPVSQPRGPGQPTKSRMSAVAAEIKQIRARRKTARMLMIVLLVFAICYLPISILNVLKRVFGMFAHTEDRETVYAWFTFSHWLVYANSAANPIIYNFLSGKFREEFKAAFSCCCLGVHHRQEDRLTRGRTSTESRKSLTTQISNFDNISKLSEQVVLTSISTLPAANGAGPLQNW
Method: (§1) For intracellular calcium measurements, Chinese hamster ovary (CHO) cells expressing the rat orexin-1 receptor or the human orexin-2 receptor, are grown in Iscove's modified DMEM containing 2 mM L-glutamine, […], 1% hypoxanthine-thymidine supplement, 100 U/ml penicillin, 100 μg/ml streptomycin and 10% heat-inactivated fetal calf serum (FCS). The cells are seeded at 20,000 cells/well into Becton-Dickinson black 384-well clear bottom sterile plates coated with poly-D-lysine. All reagents were from GIBCO-Invitrogen Corp. The seeded plates are incubated overnight at 37° C. and 5% CO2. Ala-6,12 human orexin-A as the agonist is prepared as a 1 mM stock solution in 1% bovine serum albumin (BSA) and diluted in assay buffer (HBSS containing 20 mM HEPES, 0.1% BSA and 2.5 mM probenecid, pH7.4) for use in the assay at a final concentration of 70 pM. Test compounds are prepared as 10 mM stock solution in DMSO, then diluted in 384-well plates, first in DMSO, then assay buffer. On the day of the assay, cells are washed 3 times with 100 μl assay buffer and then incubated for 60 min (37° C., 5% CO2) in 60 μl assay buffer containing 1 μM Fluo-4AM ester, 0.02% pluronic acid, and 1% BSA, The dye loading solution is then aspirated and cells are washed 3 times with 100 μl assay buffer, 30 μl of that same buffer is left in each well. Within the Fluorescent Imaging Plate Reader (FLIPR, Molecular Devices), test compounds are added to the plate in a volume of 25 μl, incubated for 5 min and finally 25 μl of agonist is added. Fluorescence is measured for each well at 1 second intervals for 5 minutes and the height of each fluorescence peak is compared to the height of the fluorescence peak induced by 70 pM Ala-6,12 orexin-A with buffer in place of antagonist. […] The intrinsic orexin receptor antagonist activity of a compound which may be used in the present invention may be determined by these assays.

[2] = target: T2, rat orexin-1 receptor (Rattus norvegicus, UniProt P56718); assay: FLIPR Ca2+ flux assay, OX1R; format: cell-based; settings: CHO cells expressing rat orexin-1 receptor; agonist 70 pM Ala-6,12 orexin-A
T2 construct: expressed in transfected cells; host or cells: CHO cells (grown under G418 selection)
T2 sequence (P56718 1-416): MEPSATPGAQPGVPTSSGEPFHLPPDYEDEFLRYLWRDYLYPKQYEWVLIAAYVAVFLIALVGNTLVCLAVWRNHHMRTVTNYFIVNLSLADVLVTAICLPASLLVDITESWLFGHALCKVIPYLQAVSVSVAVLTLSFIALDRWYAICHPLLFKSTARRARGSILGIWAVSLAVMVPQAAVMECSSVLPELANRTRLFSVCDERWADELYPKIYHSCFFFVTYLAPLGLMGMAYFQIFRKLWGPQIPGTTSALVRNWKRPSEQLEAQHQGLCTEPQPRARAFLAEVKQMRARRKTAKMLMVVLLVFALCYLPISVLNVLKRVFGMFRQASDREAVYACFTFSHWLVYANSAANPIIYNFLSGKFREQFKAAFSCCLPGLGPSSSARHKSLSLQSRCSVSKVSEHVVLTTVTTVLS
Method: as §1

| IC50 [1] [nM] | Fold Selective [1] | IC50 [2] [nM] | Structure (SMILES) |
| --- | --- | --- | --- |
| 50 | 200 | > 10000 | C[C@@H]1CCN(c2nccn3ccnc23)CCN1C(=O)c1ccccc1-n1nccn1 [Example 22, 8-[(5R)-5-methyl-4-{[2-(2H-1,2,3-triazol-2-yl)phenyl]carbonyl}-1,4-diazepan-1-yl]imidazo[1,2-a]pyrazine] |
| 29 | 344 | > 10000 | C[C@@H]1CCN(c2nccn3ccnc23)CCN1C(=O)c1ccccc1C1CC1 [Example 23, 8-{(5R)-4-[(2-cyclopropylphenyl)carbonyl]-5-methyl-1,4-diazepan-1-yl}imidazo[1,2-a]pyrazine] |
| 113 | 88 | > 10000 | C[C@@H]1CCN(c2nccn3nccc23)CCN1C(=O)c1ccccc1-n1nccn1 [Example 24, 4-[(5R)-5-methyl-4-{[2-(2H-1,2,3-triazol-2-yl)phenyl]carbonyl}-1,4-diazepan-1-yl]pyrazolo[1,5-a]pyrazine] |
| 126 | 79 | > 10000 | C[C@@H]1CCN(c2nccn3ccnc23)CCN1C(=O)c1cccnc1-n1cccn1 [Example 25, 8-[(5R)-5-methyl-4-{[2-(1H-pyrazol-1-yl)pyridin-3-yl]carbonyl}-1,4-diazepan-1-yl]imidazo[1,2-a]pyrazine] |

From US10000499B2, “Methyl diazepane orexin receptor antagonists” (MERCK SHARP & DOHME CORP., priority 2014, dated 2018)
